What was measured:
Format in all cases: in vivo
Echinochloa crus-galli [1] = assay: Test Example 1: herbicidal effect test by treatment of rice paddy soil (immediately after seeding); details: 120 g/10a active ingredient, dry weight vs untreated area, 14 days after treatment
Method in brief: (§1)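 Values are herbicidal rates (%) derived from average plant dry weight in treated versus untreated pots 14 days after treatment, run in duplicate. Treatment was a water-diluted emulsion dropped into flooded paddy soil right after sowing, at 120 g active ingredient per 10 ares.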

Scirpus juncoides [2] = assay: as above; details: 120 g/10a active ingredient, dry weight vs untreated area, 14 days after treatment
Method in brief: as §1

[3] = test system: broad leaf weeds (Lindernia pyxidaria and Monochoria vaginalis); assay: as above; details: 120 g/10a active ingredient, dry weight vs untreated area, 14 days after treatment
Method in brief: as §1

Echinochloa crus-galli [4] = assay: Test Example 2: herbicidal effect test by treatment during growing period in paddy rice cultivation (seven days after seeding); details: 120 g/10a active ingredient, assessed 14 days after treatment, dry weight vs untreated area
Method in brief: (§2)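 Emulsion formulations, diluted in water, applied dropwise to flooded pots (about 3 cm water) 7 days post-seeding at 120 g a.i./10 ares. Weeds sown 30 seeds each, 0–1 cm deep in puddled paddy soil; greenhouse. Readout: % reduction in plant dry weight vs untreated, day 14, duplicates.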

Scirpus juncoides [5] = assay: as above; details: 120 g/10a active ingredient, assessed 14 days after treatment, dry weight vs untreated area
Method in brief: as §2

[6] = test system: broad leaf weeds (Lindernia pyxidaria and Monochoria vaginalis); assay: as above; details: 120 g/10a active ingredient, assessed 14 days after treatment, dry weight vs untreated area
Method in brief: as §2

Amaranthus viridis [7] = assay: Test Example 3: herbicidal effect test by treatment of dry field farming soil (one day after seeding); details: 120 g/10a active ingredient, evaluated 14 days after treatment
Method in brief: (§3)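 Herbicidal rate (%) = {1 − treated/untreated mean plant dry weight} × 100, scored 14 days after spraying, duplicate pots per concentration. Emulsified compound was water-diluted and applied to soil surface one day post-seeding at 120 g a.i. per 10 ares.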

Chenopodium album [8] = assay: as above; details: 120 g/10a active ingredient, evaluated 14 days after treatment
Method in brief: as §3

Echinochloa crus-galli [9] = assay: as above; details: 120 g/10a active ingredient, evaluated 14 days after treatment
Method in brief: as §3

southern crabgrass [10] = assay: as above; details: 120 g/10a active ingredient, evaluated 14 days after treatment
Method in brief: as §3

Amaranthus viridis [11] = assay: Test Example 4: herbicidal effect test by treatment of leave and stem in dry field farming (seven days after seeding); details: 120 g/10a active ingredient; emulsion sprayed seven days after seeding; evaluated 14 days after treatment
Method in brief: (§4)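 Duplicate pots were scored 14 days post-spray by dry weight, herbicidal rate = {1 − treated/untreated average dry weight} × 100. The water-diluted emulsion, equivalent to 120 g active ingredient per 10 ares in 100 L, was applied seven days after sowing 20 seeds each into the upper 1 cm of alluvial soil.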

Chenopodium album [12] = assay: as above; details: 120 g/10a active ingredient; emulsion sprayed seven days after seeding; evaluated 14 days after treatment
Method in brief: as §4

Echinochloa crus-galli [13] = assay: as above; details: 120 g/10a active ingredient; emulsion sprayed seven days after seeding; evaluated 14 days after treatment
Method in brief: as §4

southern crabgrass [14] = assay: as above; details: 120 g/10a active ingredient; emulsion sprayed seven days after seeding; evaluated 14 days after treatment
Method in brief: as §4

Row | SMILES | Herbicidal rate (%) Echinochloa crus-galli (Echinochloa crus-galli [1]) | Herbicidal rate (%) Scirpus juncoides (Scirpus juncoides [2]) | Herbicidal rate (%) Lindernia pyxidaria [3] | Herbicidal rate (%) Monochoria vaginalis [3] | Herbicidal rate (%) Echinochloa crus-galli (Echinochloa crus-galli [4]) | Herbicidal rate (%) Scirpus juncoides (Scirpus juncoides [5]) | Herbicidal rate (%) Lindernia pyxidaria [6] | Herbicidal rate (%) Monochoria vaginalis [6] | herbicidal rate, Amaranthus viridis (Amaranthus viridis [7]) | herbicidal rate, Chenopodium album (Chenopodium album [8]) | herbicidal rate, Echinochloa crus-galli (Echinochloa crus-galli [9]) | herbicidal rate, southern crabgrass (southern crabgrass [10]) | herbicidal effect (herbicidal rate), Amaranthus viridis (Amaranthus viridis [11]) | herbicidal effect (herbicidal rate), Chenopodium album (Chenopodium album [12]) | herbicidal effect (herbicidal rate), Echinochloa crus-galli (Echinochloa crus-galli [13]) | herbicidal effect (herbicidal rate), southern crabgrass (southern crabgrass [14])
1 | CC(=O)N(c1ccccc1Cc1c(C)n(CC(C)(C)C)oc1=O)S(=O)(=O)C(F)(F)F [Compound 1-298] | 90% | 90% | 90% | 90% | 90% | 90% | 90% | 90% | 90% | 90% | 90% | 90% | 40% | 40% | 90% | 90%
2 | CCCC(C)n1oc(=O)c(Cc2ccccc2N(C(C)=O)S(=O)(=O)C(F)(F)F)c1C (stereo not shown) [Compound 1-299] | 100% | 90% | 100% | 80% | 100% | 90% | 60% | 70% | 70% | 40% | 90% | 80% | 40% | 90% | 90% | 80%
3 | Cc1c(Cc2ccccc2N(C(=O)C(C)C)S(=O)(=O)C(F)(F)F)c(=O)on1C(C)(C)C [Compound 1-329] | 90% | 90% | 90% | 90% | 90% | 90% | 90% | 90% | 90% | 90% | 90% | 90% | 40% | 40% | 90% | 90%
4 | CCC(C)Cn1oc(=O)c(Cc2ccccc2N(C(=O)OCC(C)C)S(=O)(=O)C(F)(F)F)c1C (stereo not shown) [Compound 1-674] | 100% | 90% | 90% | 90% | 100% | 90% | 70% | 90% | 40% | 40% | 80% | 50% | 60% | 50% | 70% | 80%
5 | CCOC(=O)N(c1ccccc1Cc1c(C)n(C(C)CC)oc1=O)S(=O)(=O)C(F)(F)F (stereo not shown) [Compound 1-605] | 90% | 90% | 90% | 90% | 90% | 90% | 90% | 90% | 90% | 90% | 90% | 90% | 40% | 40% | 90% | 90%
6 | Cc1c(Cc2ccccc2N(C(=O)Cc2ccccc2)S(=O)(=O)C(F)(F)F)c(=O)on1C(C)(C)C [Compound 1-503] | 90% | 90% | 90% | 90% | 90% | 90% | 90% | 90% | 90% | 90% | 90% | 90% | 40% | 40% | 90% | 90%
7 | C=CCOC(=O)N(c1ccccc1Cc1c(C)n(C(C)COC)oc1=O)S(=O)(=O)C(F)(F)F (stereo not shown) [Compound 1-708] | 90% | 90% | 90% | 90% | 90% | 90% | 90% | 90% | 90% | 90% | 90% | 90% | 40% | 40% | 90% | 90%
8 | CCC(C)n1oc(=O)c(Cc2ccccc2N(C(C)=O)S(=O)(=O)C(F)(F)F)c1C (stereo not shown) [Compound 1-294] | 90% | 90% | 90% | 90% | 90% | 90% | 90% | 90% | 90% | 90% | 90% | 90% | 40% | 40% | 90% | 90%
9 | COCC(C)n1oc(=O)c(Cc2ccccc2N(C(=O)c2ccccc2)S(=O)(=O)C(F)(F)F)c1C (stereo not shown) [Compound 1-479] | 90% | 90% | 90% | 90% | 90% | 90% | 90% | 90% | 90% | 90% | 90% | 90% | 40% | 40% | 90% | 90%
10 | CC(=O)N(c1ccccc1Cc1c(C)n(C(C)c2ccccc2)oc1=O)S(=O)(=O)C(F)(F)F (stereo not shown) [Compound 1-310] | 90% | 90% | 90% | 90% | 90% | 90% | 90% | 90% | 90% | 90% | 90% | 90% | 40% | 40% | 90% | 90%

— patent US11109593B2, “Isoxazolin-5-one derivative and herbicide containing same as active ingredient” (HOKKO CHEMICAL INDUSTRY CO., LTD., priority 2017, dated 2021)
